Data on two compounds can be found in patent US20250002488A1, “Glioblastoma Multiforme Treatments” (Brown University, priority 2021, published 2025).

In test [1] the test system is GSCs. Briefly: two-week limiting dilution assay (LDA), self-renewal / neuro-sphere formation. The test is classed as cell-based. From the text:
A graph using an online algorism to score and assess the self-renew ability of GSCs treated with DMSO and HDAC class IIa inhibitor respectively (FIGS. 6B and 6D).
To validate whether HDAC-7 inhibition would present a phenotype change in primary GSCs, its effect on modifying the self-renewal of GSCs was examined, and since there is no small molecule drug currently available as a selective HDAC-7 inhibitor, the class IIa HDAC inhibitor, TMP269, that inhibits HDAC-4,5,7,9, was used. The two-week limiting dilution assay “LDA” that tests the frequency of self-renewing cells within a population was applied. […] Moreover, the same significant result was observed when testing GSCs from different genotypes (FIGS. 6A-6D).

Test [2] relates to GSCs. Put plainly: cell viability assay by MTS. The test is classed as cell-based. To be noted: increasing doses, 72 hrs. As for the experimental part:
Dose response curve for GSCs treated with Pan HDAC inhibitors TSA (Trichostatin A), SAHA (Vorinostat) versus the HDAC class IIa inhibitor (TMP269). Cell viability assay was determined by MTS after the treatment with increasing doses of each corresponding drug at time point 72 hrs with P-value <0.0001.
HDAC-7 has been crystalized, and like other members of class I, II, and IV, HDAC-7 binds to the substrates through a zinc mediated charge relay system. Class IIa HDAC has another specific zinc-binding motif adjacent to the active site, which directs the recognition and protein-protein interaction. However, there is remarkable structural diversity in HDAC-7 found in loop regions around the active site entrance that poses a challenge to generation of inhibitors.

Turning to `O=C(NCC1(c2nc(-c3ccccc3)cs2)CCOCC1)c1cccc(-c2noc(C(F)(F)F)n2)c1` [TMP269], in test [1] (2-week limiting dilution assay, versus DMSO control), the “neuro-sphere formation of GSCs” value was “unable to form neuro-spheres”. In test [1] (two-week LDA, versus DMSO-treated control cells, GSCs from different genotypes), the “self-renewal of GSCs (ability to form neuro-spheres, algorithmic scoring)” value is given as “significant decrease”. In test [2], the GSC cell viability entry was “decreases the GSCs' viability”.

Take `O=C(CCCCCCC(=O)Nc1ccccc1)NO` [Vorinostat]: the GSC cell viability result in test [2] was “inhibitory trend”.
